Assay results from patent US20240358693A1, “METHODS OF TREATING PAIN” (Aisa Pharma, Inc., priority 2023, published 2024).

System: participants with SSc-RP
Assay: Scleroderma Health Assessment Questionnaire (SHAQ): disability indices and visual analog scales
Type: in vivo, human
Description: The standard, validated, patient reported outcome measures tool for SSc patients, the Scleroderma Health Assessment Questionnaire (SHAQ), will be used to assess the participant qualify of life. Details are attached in the Appendix. The participant quality of life will be scored, and a disability index calculated for each questionnaire completed by the patient at Screening and each in-clinic visit. The absolute change in participant quality of life from baseline to the end of each dosing period will be calculated similar to frequency data as before.
The SHAQ includes a Raynaud's VAS, which will be reported at screening and each in-clinic visit. The absolute change in Raynaud-VAS, assessed by the participants response to the SHAQ question ‘In the past 7 days, how much have your Raynaud's interfered with your daily activities?’ at baseline and the end of each dosing period will be calculated similar to frequency data as before.
The SHAQ is used to calculate a Disability Index to assess the participant qualify of life. The eight categories assessed by the Disability Index are 1) dressing and grooming, 2) arising, 3) eating, 4) walking, 5) hygiene, 6) reach, 7) grip, and 8) common daily activities. For each of these categories, patients report the amount of difficulty they have in performing two or three specific activities.
There are four possible responses for the Disability Index questions: • Without any difficulty=0 • With some difficulty=1 • With much difficulty=2 • Unable to do=3. • The highest score reported by the patient for any component question of the eight categories determines the score for that category. • If a component question is left blank or the response is too ambiguous to assign a score, then the score for that category is determined by the remaining completed question(s). • If all component questions are blank or if more than one answer is given, then follow up with the respondent is required. • If the respondent's mark is between the response columns, then move it to the closest one. If it's directly between the two, move it to the higher one.
Each of the disability items on the SHAQ has a companion aids/devices variable that is used to record what type(s) of assistance, if any, the participant uses for his/her usual activities. These variables (see below) are coded as follows: • 0=No assistance is needed. • 1=A special device is used by the patient in his/her usual activities. • 2=The patient usually needs help from another person. • 3=The patient usually needs BOTH a special device AND help from another person.
The scoring variables and scoring rules permit the computation of two disability indices, the Standard Disability Index and the Alternative Disability Index.
This question results in a new set of category scores that are computed by adjusting the score for each category, if necessary, based on the patient's use of an aid or device or assistance for that category. If either devices and/or help from another person are checked for a category, the score is set to “2”, unless the score is already “3” (i.e., scores of “0” or “1” are increased to “2”). For example, if the highest score for the dressing category is “1”, and the patient says they use a device for dressing, the computed category score would be “2”. The sum of the computed categories scores is then calculated and divided by the number of categories answered. This gives a score in the 0 to 3 range.
The aid and device variables are not used to calculate the alternative disability index; it is calculated by adding the scores for each of the categories and dividing by the number of categories answered. This gives a score in the 0 to 3 range.
The standard, validated, patient reported outcome measures tool for SSc patients, the SHAQ, was collected at the time points specified in the study schedules (FIG. 2 and FIGS. 4A and 4B) to assess the participant's quality of life. The SHAQ included a Raynaud's VAS that will also be reported separately.

[1] = Baseline, Cilnidipine 20 mg (N = 4), Patients with Diagnosis of SSc, PP Population Part A
[2] = Baseline, Pooled Cilnidipine 10 mg and Cilnidipine 10 mg + Tadalafil 5 mg (N = 9), PP Population Part A
[3] = Baseline, Pooled Cilnidipine 20 mg and Cilnidipine 20 mg + Tadalafil 5 mg (N = 8), PP Population Part A
[4] = Baseline, Pooled Cilnidipine (N = 8), PP Population Part A
[5] = Cilnidipine 10 mg (N = 3), patients with diagnosis of SSc, sensitivity analysis, Modified ITT, Part A
[6] = Cilnidipine 10 mg (N = 4), Modified ITT, Part A
[7] = Cilnidipine 10 mg, Day 12, PP Population Part A, SSc patients

## COCCOC(=O)C1=C(C)NC(C)=C(C(=O)OC/C=C/c2ccccc2)C1c1cccc([N+](=O)[O-])c1 (stereo not shown) [Cilnidipine, cilnidipine]
Baseline, Cilnidipine 10 mg (N = 4), Patients with Diagnosis of SSc, PP Population Part A
  SHAQ Standard Disability Index, Median: 0.563
[1]
  SHAQ Alternative Disability Index, Mean: 0.219
  SHAQ Alternative Disability Index, Median: 0.250
  SHAQ Standard Disability Index, Mean: 0.344
  SHAQ Standard Disability Index, Median: 0.375
[2]
  SHAQ Visual Analogue Scale - Breathing Problems, Mean: 1.511
  SHAQ Visual Analogue Scale - Breathing Problems, Median: 0.800
  SHAQ Visual Analogue Scale - Finger Ulcers, Mean: 0.656
  SHAQ Visual Analogue Scale - Finger Ulcers, Median: 0.200
  SHAQ Visual Analogue Scale - Intestinal Problems, Mean: 2.444
  SHAQ Visual Analogue Scale - Intestinal Problems, Median: 1.100
  SHAQ Visual Analogue Scale - Overall Disease Severity, Mean: 3.044
  SHAQ Visual Analogue Scale - Overall Disease Severity, Median: 1.900
  SHAQ Visual Analogue Scale - Pain, Mean: 3.278
  SHAQ Visual Analogue Scale - Pain, Median: 3.100
  SHAQ Visual Analogue Scale - Raynaud's, Mean: 2.733
  SHAQ Visual Analogue Scale - Raynaud's, Median: 1.400
[3]
  SHAQ Visual Analogue Scale - Breathing Problems, Mean: 1.175
  SHAQ Visual Analogue Scale - Breathing Problems, Median: 1.000
  SHAQ Visual Analogue Scale - Finger Ulcers, Mean: 1.986
  SHAQ Visual Analogue Scale - Finger Ulcers, Median: 0.100
  SHAQ Visual Analogue Scale - Intestinal Problems, Mean: 0.813
  SHAQ Visual Analogue Scale - Intestinal Problems, Median: 0.650
  SHAQ Visual Analogue Scale - Overall Disease Severity, Mean: 3.363
  SHAQ Visual Analogue Scale - Overall Disease Severity, Median: 2.950
  SHAQ Visual Analogue Scale - Pain, Mean: 2.800
  SHAQ Visual Analogue Scale - Pain, Median: 2.900
  SHAQ Visual Analogue Scale - Raynaud's, Mean: 2.700
  SHAQ Visual Analogue Scale - Raynaud's, Median: 1.700
[4]
  SHAQ Visual Analogue Scale - Breathing Problems, Mean: 1.600
  SHAQ Visual Analogue Scale - Breathing Problems, Median: 0.700
  SHAQ Visual Analogue Scale - Finger Ulcers, Mean: 1.171
  SHAQ Visual Analogue Scale - Finger Ulcers, Median: 0.300
  SHAQ Visual Analogue Scale - Intestinal Problems, Mean: 1.838
  SHAQ Visual Analogue Scale - Intestinal Problems, Median: 0.650
  SHAQ Visual Analogue Scale - Overall Disease Severity, Mean: 2.925
  SHAQ Visual Analogue Scale - Overall Disease Severity, Median: 2.950
  SHAQ Visual Analogue Scale - Pain, Mean: 2.250
  SHAQ Visual Analogue Scale - Pain, Median: 2.150
  SHAQ Visual Analogue Scale - Raynaud's, Mean: 2.338
  SHAQ Visual Analogue Scale - Raynaud's, Median: 1.800
[5]
  SHAQ Standard Disability Index: Baseline, Mean: 0.875
  SHAQ Standard Disability Index: Baseline, Median: 1.125
  SHAQ Standard Disability Index: Change from Baseline, Mean: 0.000
  SHAQ Standard Disability Index: Change from Baseline, Median: 0.000
  SHAQ Standard Disability Index: Day 12, Mean: 0.875
  SHAQ Standard Disability Index: Day 12, Median: 1.125
  SHAQ Standard Disability Index: Percent Change from Baseline, Mean: 0.00%
  SHAQ Standard Disability Index: Percent Change from Baseline, Median: 0.00%
[6]
  SHAQ Overall Severity: Baseline, Mean: 2.725
  SHAQ Overall Severity: Baseline, Median: 1.900
  SHAQ Overall Severity: Change from Baseline, Mean: −0.900
  SHAQ Overall Severity: Change from Baseline, Median: −0.950
  SHAQ Overall Severity: Day 12, Mean: 1.825
  SHAQ Overall Severity: Day 12, Median: 1.050
  SHAQ Overall Severity: Percent Change from Baseline, Mean: −56.96%
  SHAQ Overall Severity: Percent Change from Baseline, Median: −44.12%
[7]
  SHAQ Visual Analogue Scale - Breathing Problems, Change from Baseline, Mean: −0.300
  SHAQ Visual Analogue Scale - Breathing Problems, Change from Baseline, Median: 0.000
  SHAQ Visual Analogue Scale - Breathing Problems, Percent Change from Baseline, Mean: −16.00%
  SHAQ Visual Analogue Scale - Breathing Problems, Percent Change from Baseline, Median: −16.00%
